The record followed here is paper PMC6004087, “Production of the compatible solute α-D-glucosylglycerol by metabolically engineered Corynebacterium glutamicum” (Microbial Cell Factories, 2018).

This experiment deals with T1, OtsA (trehalose 6-phosphate synthase; OtsA-Strep) (Corynebacterium glutamicum, UniProt Q8NMF3).
T1 construct: gene Cgl2624; full-length OtsA with C-terminal Strep-tag kept (pASK-IBA3-otsA), expressed in E. coli BL21(DE3), Strep-Tactin purified, 53 kDa
T1 sequence (Q8NMF3 1-485): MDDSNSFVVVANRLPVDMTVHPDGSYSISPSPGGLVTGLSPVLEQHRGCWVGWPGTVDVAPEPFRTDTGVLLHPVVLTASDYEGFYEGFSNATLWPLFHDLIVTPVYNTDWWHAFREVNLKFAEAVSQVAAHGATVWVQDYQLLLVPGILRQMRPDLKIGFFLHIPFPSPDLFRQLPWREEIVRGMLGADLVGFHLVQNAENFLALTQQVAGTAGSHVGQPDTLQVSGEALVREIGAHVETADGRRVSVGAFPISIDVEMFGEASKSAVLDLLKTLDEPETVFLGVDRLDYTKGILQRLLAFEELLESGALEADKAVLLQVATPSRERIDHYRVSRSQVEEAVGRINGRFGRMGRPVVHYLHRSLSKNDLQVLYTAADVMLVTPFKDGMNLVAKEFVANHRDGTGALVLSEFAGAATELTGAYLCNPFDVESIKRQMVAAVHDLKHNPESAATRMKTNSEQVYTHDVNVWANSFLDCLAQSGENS
In words: GC of trehalose after alkaline phosphatase treatment of trehalose-6-phosphate. It counts as biochemical. The following applies: co-substrate 3 mM glucose-6-phosphate; 10 mM Tris-maleate, 5 mM MgCl2, 0.05 mM EDTA, pH 7.5, 30 °C; 3 mM or 5 mM sugar nucleotide.

The structures appear in SMILES notation.

`Nc1ncnc2c1ncn2[C@@H]1O[C@H](COP(=O)(O)OP(=O)(O)O[C@H]2O[C@H](CO)[C@@H](O)[C@H](O)[C@H]2O)[C@@H](O)[C@H]1O` [ADP-glucose]: the specific activity result is “C. glutamicum OtsA used UDP- as well as ADP-glucose as precursor for trehalose-phosphate synthesis”.
